In patent US8916565B2, “Pyrrolopyrazine-spirocyclic piperidine amides as modulators of ion channels” (priority 2011, dated 2014):

Target: human NaV subtype, like NaV 1.7 (Homo sapiens, UniProt Q15858)
Assay: E-VIPR optical membrane potential assay with electrical stimulation
Type: cell-based
Conditions: active against one or more sodium channels; Table 3 does not name the assay or NaV subtype; read-out: Binned Activity Data (IC50)
Excerpt: Assays for Detecting and Measuring NaV Inhibition Properties of Compound E-VIPR Optical Membrane Potential Assay Method with Electrical Stimulation
Sodium channels are voltage-dependent proteins that can be activated by inducing membrane voltage changes by applying electric fields. The electrical stimulation instrument and methods of use are described in Ion Channel Assay Methods PCT/US01/21652, herein incorporated by reference and are referred to as E-VIPR. The instrument comprises a microtiter plate handler, an optical system for exciting the coumarin dye while simultaneously recording the coumarin and oxonol emissions, a waveform generator, a current- or voltage-controlled amplifier, and a device for inserting electrodes in well. Under integrated computer control, this instrument passes user-programmed electrical stimulus protocols to cells within the wells of the microtiter plate.
24 hours before the assay on E-VIPR, HEK cells expressing human NaV subtype, like NaV 1.7, are seeded in 384-well poly-lysine coated plates at 15,000-20,000 cells per well. Other subtypes are performed in an analogous mode in a cell line expressing the NaV of interest. HEK cells are grown in media (exact composition is specific to each cell type and NaV subtype) supplemented with 10% FBS (Fetal Bovine Serum, qualified; GibcoBRL #16140-071) and 1% Pen-Strep (Penicillin-Streptomycin; GibcoBRL #15140-122). Cells are grown in vented cap flasks, in 90% humidity and 10% CO2, to 100% confluence. They are usually split by trypsinization 1:10 or 1:20, depending on scheduling needs, and grown for 2-3 days before the next split.
Bath 1 buffer. Glucose 10 mM (1.8 g/L), Magnesium Chloride (Anhydrous), 1 mM (0.095 g/L), Calcium Chloride, 2 mM (0.222 g/L), HEPES 10 mM (2.38 g/L), Potassium Chloride, 4.5 mM (0.335 g/L), Sodium Chloride 160 mM (9.35 g/L).
Hexyl Dye Solution: Bath 1 Buffer+0.5% β-cyclodextrin (make this prior to use, Sigma #C4767), 8 μM CC2-DMPE+2.5 μM DiSBAC6(3). To make the solution Add volume of 10% Pluronic F127 stock equal to volumes of CC2-DMPE+DiSBAC6(3). The order of preparation is first mix Pluronic and CC2-DMPE, then add DiSBAC6(3) while vortexing, then add Bath 1+β-Cyclodextrin.
1) Pre-spot compounds (in neat DMSO) into compound plates. Vehicle control (neat DMSO), the positive control (20 mM DMSO stock tetracaine, 125 μM final in assay) and test compounds are added to each well at 160× desired final concentration in neat DMSO. Final compound plate volume will be 80 μL (80-fold intermediate dilution from 1 μL DMSO spot; 160-fold final dilution after transfer to cell plate). Final DMSO concentration for all wells in assay is 0.625%.
2) Prepare Hexyl Dye Solution.
3) Prepare cell plates. On the day of the assay, medium is aspirated and cells are washed three times with 100 μL of Bath 1 Solution, maintaining 25 μL residual volume in each well.
4) Dispense 25 μL per well of Hexyl Dye Solution into cell plates. Incubate for 20-35 minutes at room temp or ambient conditions.
5) Dispense 80 μL per well of Bath 1 into compound plates. Acid Yellow-17 (1 mM) is added and Potassium Chloride can be altered from 4.5 to 20 mM depending on the NaV subtype and assay sensitivity.
6) Wash cell plates three times with 100 μL per well of Bath1, leaving 25 μL of residual volume. Then transfer 25 uL per well from Compound Plates to Cell Plates. Incubate for 20-35 minutes at room temp/ambient condition
7) Read Plate on E-VIPR. Use the current-controlled amplifier to deliver stimulation wave pulses for typically 9 seconds and a scan rate of 400 Hz. A pre-stimulus recording is performed for 0.5 seconds to obtain the un-stimulated intensities baseline. The stimulatory waveform is applied for 9 seconds followed by 0.5 seconds of post-stimulation recording to examine the relaxation to the resting state.

Sequence of human NaV subtype, like NaV 1.7 (Q15858 whole entry): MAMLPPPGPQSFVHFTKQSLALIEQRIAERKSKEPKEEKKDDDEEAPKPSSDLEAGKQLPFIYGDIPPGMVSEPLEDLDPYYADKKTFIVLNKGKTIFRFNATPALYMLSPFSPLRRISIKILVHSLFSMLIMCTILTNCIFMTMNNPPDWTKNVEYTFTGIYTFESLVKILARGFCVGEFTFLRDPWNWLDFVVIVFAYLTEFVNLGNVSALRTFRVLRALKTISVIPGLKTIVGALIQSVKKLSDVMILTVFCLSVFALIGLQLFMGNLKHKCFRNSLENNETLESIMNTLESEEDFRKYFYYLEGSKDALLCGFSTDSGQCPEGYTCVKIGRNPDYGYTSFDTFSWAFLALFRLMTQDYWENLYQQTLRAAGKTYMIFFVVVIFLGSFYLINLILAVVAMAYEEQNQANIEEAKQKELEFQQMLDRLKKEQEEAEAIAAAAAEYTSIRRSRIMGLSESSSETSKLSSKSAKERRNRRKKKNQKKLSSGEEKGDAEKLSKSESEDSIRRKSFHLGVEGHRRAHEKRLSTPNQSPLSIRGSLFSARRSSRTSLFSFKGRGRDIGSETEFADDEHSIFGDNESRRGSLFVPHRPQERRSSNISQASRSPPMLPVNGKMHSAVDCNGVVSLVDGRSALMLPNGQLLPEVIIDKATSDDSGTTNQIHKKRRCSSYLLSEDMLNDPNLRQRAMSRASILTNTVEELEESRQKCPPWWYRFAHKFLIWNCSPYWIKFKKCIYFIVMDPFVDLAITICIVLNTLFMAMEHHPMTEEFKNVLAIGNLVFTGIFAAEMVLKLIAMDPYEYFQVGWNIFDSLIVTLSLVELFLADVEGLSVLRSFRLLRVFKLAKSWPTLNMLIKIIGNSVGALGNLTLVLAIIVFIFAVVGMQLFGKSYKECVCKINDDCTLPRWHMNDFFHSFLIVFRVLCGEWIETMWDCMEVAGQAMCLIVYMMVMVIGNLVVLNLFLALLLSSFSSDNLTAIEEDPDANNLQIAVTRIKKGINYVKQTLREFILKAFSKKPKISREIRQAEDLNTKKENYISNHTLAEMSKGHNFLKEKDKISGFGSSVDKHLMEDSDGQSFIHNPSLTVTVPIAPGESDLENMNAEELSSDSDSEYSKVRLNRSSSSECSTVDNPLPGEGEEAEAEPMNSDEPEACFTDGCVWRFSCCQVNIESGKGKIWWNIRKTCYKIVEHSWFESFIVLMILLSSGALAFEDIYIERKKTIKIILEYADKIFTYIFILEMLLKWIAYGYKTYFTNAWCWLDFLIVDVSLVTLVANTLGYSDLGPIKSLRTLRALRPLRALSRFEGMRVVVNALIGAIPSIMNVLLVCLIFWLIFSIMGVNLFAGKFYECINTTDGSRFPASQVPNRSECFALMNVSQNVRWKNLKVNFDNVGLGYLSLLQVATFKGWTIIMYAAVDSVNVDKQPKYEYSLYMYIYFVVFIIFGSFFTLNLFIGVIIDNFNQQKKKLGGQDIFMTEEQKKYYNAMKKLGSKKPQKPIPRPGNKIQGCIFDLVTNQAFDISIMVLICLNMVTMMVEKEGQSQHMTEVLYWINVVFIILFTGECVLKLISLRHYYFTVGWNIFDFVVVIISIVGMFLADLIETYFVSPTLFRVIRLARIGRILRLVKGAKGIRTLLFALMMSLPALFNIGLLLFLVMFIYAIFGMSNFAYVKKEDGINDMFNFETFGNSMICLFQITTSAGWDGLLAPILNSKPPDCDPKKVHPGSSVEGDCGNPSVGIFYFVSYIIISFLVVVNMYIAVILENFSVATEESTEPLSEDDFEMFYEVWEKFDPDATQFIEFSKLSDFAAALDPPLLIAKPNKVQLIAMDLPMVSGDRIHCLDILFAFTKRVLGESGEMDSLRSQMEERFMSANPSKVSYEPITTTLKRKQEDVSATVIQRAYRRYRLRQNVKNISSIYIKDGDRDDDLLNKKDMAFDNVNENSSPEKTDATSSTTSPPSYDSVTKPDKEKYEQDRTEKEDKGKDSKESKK

SMILES	IC50
COc1cc(C(=O)N2CCC3(CC2)c2ccc(C(F)(F)F)n2CCN3CC(F)(F)F)ccc1OC(C)C [Compound 59]	≤ 2000 nM
COc1ccc(C(=O)N2CCC3(CC2)c2ccc(C(=O)C(F)(F)F)n2C[C@@H](C)N3C)cc1C(F)(F)F [Compound 61]	2000 to 5000 nM
CCCCCc1ccc(C(=O)N2CCC3(CC2)c2ccc(C(=O)C(F)(F)F)n2CCN3C)cc1 [Compound 62]	≤ 2000 nM
Cc1cccc(C(=O)N2CCC3(CC2)c2ccc(C(F)(F)F)n2CCN3C)n1 [Compound 63]	> 5000 nM
CCOc1ccc(C(=O)N2CCC3(CC2)c2ccc(C(=O)C(F)(F)F)n2CCN3C)cc1C(F)(F)F [Compound 64]	≤ 2000 nM
CCCCOc1ccc(C(=O)N2CCC3(CC2)c2ccc(Cl)n2CCN3C)cc1OC [Compound 65]	≤ 2000 nM
CN1CCn2c(C(=O)C3CC3)ccc2C12CCN(C(=O)c1ccc(C3CCCCC3)cc1)CC2 [Compound 66]	≤ 2000 nM
CCC(C)(C)c1ccc(C(=O)N2CCC3(CC2)c2ccc(C(C)=O)n2CCN3C)cc1 [Compound 67]	> 5000 nM
CN1CCn2c(Cl)ccc2C12CCN(C(=O)c1ccc(OCc3ccccc3)cc1)CC2 [Compound 68]	2000 to 5000 nM
CC(C)Oc1ccc(C(=O)N2CCC3(CC2)c2ccc(C(=O)C4CC4)n2CCN3C)cc1C(F)(F)F [Compound 69]	≤ 2000 nM
Cc1cc(C(=O)N2CCC3(CC2)c2ccc(C(=O)C4CC4)n2CCN3C)ccc1OC(C)C [Compound 70]	≤ 2000 nM
CN1CCn2c(C(=O)C(F)(F)F)ccc2C12CCN(C(=O)c1ccc(Cc3ccccc3)cc1)CC2 [Compound 71]	≤ 2000 nM
CN1CCn2c(C(=O)C(F)(F)F)ccc2C12CCN(C(=O)c1ccc(C(O)COCC(F)(F)F)cc1)CC2 (stereo not shown) [Compound 72]	≤ 2000 nM
CC(C)Cc1ccc(C(=O)N2CCC3(CC2)c2ccc(Cl)n2CCN3C)cc1 [Compound 73]	2000 to 5000 nM
COc1ccc(C(=O)N2CCC3(CC2)c2ccc(C(=O)c4ccccc4)n2CCN3C)cc1Cl [Compound 74]	2000 to 5000 nM
CN1CCn2c(C(F)(F)F)cc(Cl)c2C12CCN(C(=O)c1ccc(COCC(F)(F)F)cc1)CC2 [Compound 75]	≤ 2000 nM
CC1(C)CNC2(CCN(C(=O)c3ccc(S(=O)(=O)NC4CC4)cc3)CC2)c2ccc(C(F)(F)F)n21 [Compound 76]	> 5000 nM
CC(C)Oc1ccc(C(=O)N2CCC3(CC2)NCC(C)(C)n2c(C(F)(F)F)ccc23)cc1Cl [Compound 77]	≤ 2000 nM
CC(=O)c1ccc2n1CCN(C)C21CCN(C(=O)c2ccc(Oc3ccccc3)cc2)CC1 [Compound 78]	2000 to 5000 nM
CC(C)CCOc1ccc(C(=O)N2CCC3(CC2)NC(C)(C)Cn2cc(F)c(F)c23)cc1 [Compound 79]	> 5000 nM
CCc1ccc(C(=O)N2CCC3(CC2)c2ccc(C(F)(F)F)n2CCN3CCOC)cc1OC [Compound 80]	≤ 2000 nM
COc1cc(C(=O)N2CCC3(CC2)c2ccc(Cl)n2CCN3C)ccc1OCC(C)C [Compound 82]	≤ 2000 nM
COc1cc(C(=O)N2CCC3(CC2)NCCn2c(C(F)(F)F)ccc23)ccc1C(C)(C)O [Compound 83]	≤ 2000 nM
CN1CCn2c(C(F)(F)F)ccc2C12CCN(C(=O)c1ccc(C(C)(C)O)cc1)CC2 [Compound 84]	≤ 2000 nM
COc1cc(C(=O)N2CCC3(CC2)c2ccc(C(=O)C(C)(C)C)n2CCN3C)ccc1OC(C)(C)C [Compound 85]	≤ 2000 nM
CCOc1ccc(C(=O)N2CCC3(CC2)c2ccc(Cl)n2CCN3C)cc1OCC [Compound 86]	> 5000 nM
CCCc1ccc(C(=O)N2CCC3(CC2)c2ccc(C(=O)C(F)(F)F)n2CCN3C)cc1 [Compound 87]	≤ 2000 nM
COc1cc(C(=O)N2CC[C@@]3(c4ccc(C(F)(F)F)n4CCN3C)[C@H](F)C2)ccc1OC(C)C [Compound 88]	2000 to 5000 nM

SMILES	IC50
COc1cc(C(=O)N2CCC3(CC2)c2ccc(C(=O)C(F)(F)F)n2CCN3C)ccc1OC(C)(C)C [Compound 90]	≤ 2000 nM
CC(C)Oc1ccc(C(=O)N2CCC3(CC2)c2ccc(C(=O)C(C)(C)C)n2CCN3C)c(F)c1 [Compound 91]	≤ 2000 nM
CCCCCc1ccc(C(=O)N2CCC3(CC2)c2ccc(C(C)=O)n2CCN3C)cc1 [Compound 92]	≤ 2000 nM
CN1CCn2c(C(=O)C(C)(C)C)ccc2C12CCN(C(=O)c1ccc(S(=O)(=O)C(F)(F)F)cc1)CC2 [Compound 93]	≤ 2000 nM
CCCN(CCC)S(=O)(=O)c1ccc(C(=O)N2CCC3(CC2)c2ccc(C(C)=O)n2CCN3C)cc1 [Compound 94]	2000 to 5000 nM
CN1CCn2c(C(F)(F)F)cc(Cl)c2C12CCN(C(=O)c1ccc(C(C)(C)O)c(F)c1)CC2 [Compound 95]	≤ 2000 nM
Cc1cc(C(=O)N2CCC3(CC2)c2ccc(C(F)(F)C(F)(F)F)n2CCN3C)ccc1OCCCO [Compound 96]	≤ 2000 nM
CN1CCn2c(C(=O)C(C)(C)C)ccc2C12CCN(C(=O)c1ccc(O)c(C(F)(F)F)c1)CC2 [Compound 97]	≤ 2000 nM
Cc1cc(C(=O)N2CCC3(CC2)c2ccc(C(F)(F)F)n2CCN3C)ccc1C(C)(C)O [Compound 98]	≤ 2000 nM
COc1ccccc1C(=O)N1CCC2(CC1)c1ccc(C(F)(F)F)n1CCN2C [Compound 99]	2000 to 5000 nM
CC(C)Oc1ccc(C(=O)N2CCC3(CC2)c2ccc(C(F)(F)F)n2CCN3C)cc1Cl [Compound 100]	≤ 2000 nM
CN1CCn2c(C(=O)C(F)(F)F)ccc2C12CCN(C(=O)c1ccc(C3CCCCC3)cc1)CC2 [Compound 101]	≤ 2000 nM
CN1CCn2c(C(F)(F)F)cc(Cl)c2C12CCN(C(=O)c1ccc(COCCC(F)(F)F)cc1)CC2 [Compound 102]	≤ 2000 nM
CC1(C)Cn2c(C(=O)C(F)(F)F)ccc2C2(CCN(C(=O)c3ccc(COCCC(F)(F)F)cc3)CC2)N1 [Compound 103]	≤ 2000 nM
CN1CCn2c(Cl)ccc2C12CCN(C(=O)c1ccc(-c3ccccc3)cc1)CC2 [Compound 104]	> 5000 nM
COc1cc(C(=O)N2CC[C@]3(c4ccc(C(F)(F)F)n4CCN3C)[C@H](F)C2)ccc1OC(C)C [Compound 105]	≤ 2000 nM
Cc1cc(C(=O)N2CCC3(CC2)c2ccc(C(F)(F)F)n2CCN3C2CCC2)ccc1OC(C)C [Compound 106]	≤ 2000 nM
CCC(=O)c1ccc2n1CCN(C)C21CCN(C(=O)c2ccc(OC(C)C)c(Cl)c2)CC1 [Compound 107]	≤ 2000 nM
CC(C)Oc1ccc(C(=O)N2CCC3(CC2)N[C@@H](C)Cn2c(C(F)(F)F)ccc23)cc1F [Compound 108]	2000 to 5000 nM
Cc1cccc(C(=O)N2CCC3(CC2)c2ccc(C(F)(F)F)n2CCN3C)c1 [Compound 109]	> 5000 nM
COc1cc(C(=O)N2CCC3(CC2)N[C@H]2CCCC[C@H]2n2cccc23)ccc1C(C)(C)C [Compound 110]	≤ 2000 nM
CC(C)Oc1ccc(C(=O)N2CCC3(CC2)c2ccc(S(C)(=O)=O)n2CCN3C)cc1Cl [Compound 111]	> 5000 nM
CN1CCn2c(C(F)(F)F)cc(F)c2C12CCN(C(=O)c1ccc(C3(O)CCC3)c(F)c1)CC2 [Compound 112]	≤ 2000 nM
COc1cc(C(=O)N2CCC3(CC2)c2c(F)cc(C(F)(F)F)n2CCN3C)ccc1OC(F)F [Compound 113]	≤ 2000 nM
COc1cc(C(=O)N2CCC3(CC2)c2ccc(C(=O)C(F)(F)F)n2C(C)CN3C)ccc1OCCOC(F)(F)F (stereo not shown) [Compound 114]	≤ 2000 nM
CCCCOc1cc(C(=O)N2CCC3(CC2)c2ccc(C(=O)C(F)(F)F)n2CCN3C)ccc1OC [Compound 115]	≤ 2000 nM
CN1CCn2c(C(F)(F)F)ccc2C12CCN(C(=O)c1cccnc1N1CCC(O)C1)CC2 (stereo not shown) [Compound 116]	> 5000 nM
